As usually defined, the EC50 is the midpoint of the concentration-response curve.

The target of one test is T1, S1P-5 (Homo sapiens, UniProt Q9H228).
T1 construct: expressed in transfected cells; host or cells: CHO cells under G418 selection
In words: FLIPR calcium flux assay, S1P-5. The class given is cell-based. The following applies: CHO cells expressing S1P receptor. The method, then:
(§1) Compounds of the invention are tested for agonist activity on S1P1, S1P3, S1P5, and […] with a FLIPR calcium flux assay. Briefly, CHO cells expressing an S1P receptor are maintained in F-12K medium (ATCC), containing 5% FBS, with 500 ug/ml of G418. Prior to the assay, the cells are plated in 384 black clear bottom plates at the density of 10,000 cells/well/25 ? l in the medium of F-12K containing 1% FBS. The second day, the cells are washed three times (25 μl/each) with washing buffer. About 25 μl of dye are added to each well and incubated for 1 hour at 37° C. and 5% CO2. The cells are then washed four times with washing buffer (25 μl/each). The calcium flux is assayed after adding 25 μl of SEW2871 (published by Rosen et al., used as reference) solution to each well of cells. The same assay is performed with cells expressing each of the different S1P receptors. Titration in the FLIPR calcium flux assay is recorded over a 3-minute interval, and quantitated as maximal peak height percentage response relative to S1P-1 activation. The compounds of the invention are active in this assay at a concentration of from 10^−12 and 3.10^−[…]. For example example 13 as an EC50 92 nm for S1P-1 and an EC50>1 um for all the other isoforms (S1P-2, S1P-3, S1P-4, S1P-5).
A general note: Calcium flux is commonly read through the fluorescence of an indicator in the cells.

For the next test, the target named is T2, S1P-1 (Homo sapiens, UniProt P21453).
T2 construct: expressed in transfected cells; host or cells: CHO cells under G418 selection
T2 sequence (P21453 whole entry): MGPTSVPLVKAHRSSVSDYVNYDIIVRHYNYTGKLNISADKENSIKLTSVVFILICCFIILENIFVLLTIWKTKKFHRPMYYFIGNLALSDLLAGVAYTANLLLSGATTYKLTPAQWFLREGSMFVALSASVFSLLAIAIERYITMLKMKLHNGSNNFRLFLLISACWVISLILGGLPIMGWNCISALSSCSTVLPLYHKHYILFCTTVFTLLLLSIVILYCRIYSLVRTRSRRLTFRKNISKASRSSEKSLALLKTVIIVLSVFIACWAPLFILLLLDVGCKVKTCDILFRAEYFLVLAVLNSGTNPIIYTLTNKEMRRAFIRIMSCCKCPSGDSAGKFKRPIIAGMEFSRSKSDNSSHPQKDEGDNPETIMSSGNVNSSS
In words: FLIPR calcium flux assay, S1P-1. The test is classed as cell-based. The conditions noted are these: CHO cells expressing S1P receptor. The method, then:
as §1

For another test, the target named is T3, S1P-4 (Homo sapiens, UniProt O95977).
T3 construct: expressed in transfected cells; host or cells: CHO cells under G418 selection
T3 sequence (O95977 1-384): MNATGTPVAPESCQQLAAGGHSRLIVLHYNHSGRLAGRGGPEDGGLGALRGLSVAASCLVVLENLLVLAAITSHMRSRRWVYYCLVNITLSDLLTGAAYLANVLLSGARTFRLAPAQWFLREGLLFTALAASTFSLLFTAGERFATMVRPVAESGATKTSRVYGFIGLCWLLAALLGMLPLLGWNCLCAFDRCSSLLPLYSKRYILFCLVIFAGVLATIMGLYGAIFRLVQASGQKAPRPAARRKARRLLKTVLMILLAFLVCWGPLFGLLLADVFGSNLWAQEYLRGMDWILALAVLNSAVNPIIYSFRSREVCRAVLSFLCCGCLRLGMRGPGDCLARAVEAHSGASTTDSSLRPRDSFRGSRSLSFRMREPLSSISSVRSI
Briefly: FLIPR calcium flux assay, S1P-4. The class given is cell-based. The following applies: CHO cells expressing S1P receptor. As for the experimental part: as §1

The target of another test is T4, S1P-2 (Homo sapiens, UniProt O95136).
T4 construct: expressed in transfected cells; host or cells: CHO cells under G418 selection
T4 sequence (O95136 whole entry): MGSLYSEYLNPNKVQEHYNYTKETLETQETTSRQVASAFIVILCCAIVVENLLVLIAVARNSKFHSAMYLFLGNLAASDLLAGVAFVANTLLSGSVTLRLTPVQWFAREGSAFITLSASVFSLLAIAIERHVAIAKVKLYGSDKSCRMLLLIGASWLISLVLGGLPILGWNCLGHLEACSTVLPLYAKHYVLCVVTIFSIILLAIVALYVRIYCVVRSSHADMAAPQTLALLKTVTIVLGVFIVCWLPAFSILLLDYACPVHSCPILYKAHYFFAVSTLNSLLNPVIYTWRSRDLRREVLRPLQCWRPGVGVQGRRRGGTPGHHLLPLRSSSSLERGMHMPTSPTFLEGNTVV
In words: FLIPR calcium flux assay, S1P-2. The class given is cell-based. The following applies: CHO cells expressing S1P receptor. As for the experimental part:
as §1

The target of the next test is T5, S1P-3 (Homo sapiens, UniProt Q99500).
T5 construct: expressed in transfected cells; host or cells: CHO cells under G418 selection
T5 sequence (Q99500 whole entry): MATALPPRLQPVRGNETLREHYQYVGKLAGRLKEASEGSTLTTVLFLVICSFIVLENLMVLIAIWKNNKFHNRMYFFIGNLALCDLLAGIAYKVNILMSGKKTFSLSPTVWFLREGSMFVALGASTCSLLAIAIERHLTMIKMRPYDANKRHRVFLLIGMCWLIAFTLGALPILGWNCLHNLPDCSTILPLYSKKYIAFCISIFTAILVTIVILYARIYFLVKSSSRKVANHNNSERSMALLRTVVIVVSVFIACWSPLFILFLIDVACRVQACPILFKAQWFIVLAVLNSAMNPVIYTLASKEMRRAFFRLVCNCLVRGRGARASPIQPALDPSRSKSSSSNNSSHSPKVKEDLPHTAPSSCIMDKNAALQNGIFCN
Briefly: FLIPR calcium flux assay, S1P-3. The conditions noted are these: CHO cells expressing S1P receptor. The test is classed as cell-based. The method, then:
as §1

The next test deals with T6, S1P1 (EDG-1) (Homo sapiens, UniProt P21453).
T6 construct: c-myc (N); expressed in transfected cells; homogenized membranes
T6 sequence (P21453 whole entry): as the sequence (P21453 whole entry) above
Briefly: GPCR activation assay measuring GTP [γ-35S] binding to membranes from CHO cells expressing human EDG receptors (S1P1). The test is classed as biochemical. The following applies: CHO cell membranes expressing human EDG-1, read-out: S1P-1 EC50. The method, then:
A.1 In Vitro: GPCR Activation Assay Measuring GTP [γ-^35S] Binding to Membranes Prepared From CHO Cells Expressing Human EDG Receptors
S1P1 (EDG-1) GTP [γ-^35S] binding assay: Homogenized membranes are prepared from CHO cell clones stably expressing a human EDG-1 N-terminal c-myc tag. Cells are grown in suspension in two 850 cm^2 roller bottles for three or fours days before harvesting. The cells are centrifuged down, washed once with cold PBS, and resuspended in ≦20 ml of Buffer A (20 mM HEPES, pH 7.4, 10 mM EDTA, EDTA-free complete protease inhibitor cocktail [1 tablet/25 ml]). The cell suspension is homogenized on ice, using a Polytron homogenizer at 30000 rpm at three intervals of 15 seconds each. The homogenate is first centrifuged at 2000 rpm on a tabletop low speed centrifuge for 10 minutes. The supernatant, after passing through a cell strainer, is then re-centrifuged at 50,000×g for 25 minutes at 4° C. The pellet is resuspended into buffer B (15% glycerol, 20 mM HEPES, pH 7.4, 0.1 mM EDTA, EDTA-free complete protease inhibitor cocktail [1 tablet/10 ml]). Protein concentration of the preparation is determined using the BCA Protein Assay kit (Pierce) using BSA as standard. The membranes are aliquoted and kept frozen at −80° C.
Solutions of test compounds ranging from 10 mM to 0.01 nM are prepared in DMSO. S1P is diluted in 4% BSA solution as positive controls. The desired amount of membrane preparation is diluted with ice-cold assay buffer (20 mM HEPES, pH 7.4, 100 mM NaCl, 10 mM MgCl2, 0.1% Fatty acid-free BSA, 5 μM GDP) and vortexed well. 2 μl or less of compound is distributed into each well of a round-bottom 96-well polystyrene assay plate, followed by addition of 100 μl of diluted membranes (3-10 μg/well) and kept on ice until the addition of hot GTPγS. [^35S]-GTPγS is diluted 1:1000 (v/v) with cold assay buffer and 100 μl is added into each well. The reaction is carried out at room temperature for 90 minutes before the membranes are harvested onto Perkin-Elmer Unifilter® GF/B-96 filter plate using a Packard Filtermate Harvester. After several washes with wash buffer (20 mM HEPES, pH 7.4, 100 mM NaCl, 10 mM MgCl2), and a rinse with 95% ethanol, the filter is dried in a 37° C. oven for 30 minutes. MicroScint-20 is added and the plate sealed for scintillation counting on TopCount. EC50 values are obtained by fitting the GTP [γ-^35S] binding curves (raw data) with the dose response curve-fitting tool of GraphPad Prism. Six or twelve different concentrations are used to generate a concentration response curve (using three data points per concentration).

T1 sequence (Q9H228 whole entry): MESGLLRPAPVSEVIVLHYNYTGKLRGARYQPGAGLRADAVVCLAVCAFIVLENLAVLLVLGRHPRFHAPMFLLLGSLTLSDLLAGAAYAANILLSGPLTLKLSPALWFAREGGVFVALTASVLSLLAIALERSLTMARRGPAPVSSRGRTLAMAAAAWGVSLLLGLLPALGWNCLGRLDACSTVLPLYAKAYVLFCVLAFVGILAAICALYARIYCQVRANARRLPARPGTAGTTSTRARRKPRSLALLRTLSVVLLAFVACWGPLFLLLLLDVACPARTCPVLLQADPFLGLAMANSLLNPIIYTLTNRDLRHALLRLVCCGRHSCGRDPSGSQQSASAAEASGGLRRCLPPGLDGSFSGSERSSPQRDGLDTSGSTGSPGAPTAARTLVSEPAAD

Take `CCCc1c(OC)ccc2cc(C(=O)Nc3ccc(C4CCCN4C)cc3)c(=O)oc12` (racemic) [Example 13]: the EC50 at S1P-5 is > 1000 nM; on S1P-1, 92 nM; at S1P-4, > 1000 nM; at S1P-2, > 1000 nM; on S1P-3 it was > 1000 nM.

With `CCCc1c(OC)ccc2cc(C(=O)Nc3ccc(C4CNCCN4)cc3)c(=O)oc12` (racemic) [Example 43], the EC50 on S1P1 (EDG-1) is 0.1 nM. The same measure, in the same setting: next, `COc1ccc2cc(C(=O)Nc3ccc(C4CCCCN4)cc3)c(=O)oc2c1OC(C)C` (single isomer, unassigned) [Example 23]: 75.5 nM; `COc1ccc2cc(C(=O)Nc3ccc(C4CNCCO4)cc3)c(=O)oc2c1OC(C)C` (single isomer, unassigned) [Example 41]: 2.9 nM. Same read-out and setting: next, `CCc1c(OC)ccc2cc(C(=O)Nc3ccc(C4CNCCN4)cc3)c(=O)oc12` (single isomer, unassigned) [Example 44]: 0.2 nM; `CCOc1c(OC)ccc2cc(C(=O)Nc3ccc(C4CNCCN4)cc3)c(=O)oc12` (single isomer, unassigned) [Example 53]: 4.6 nM. As for `CCCc1c(OC)ccc2cc(C(=O)Nc3ccc(C4CCCN4)cc3)c(=O)oc12` (stereo not shown) [Example 1, 7-Methoxy-2-oxo-8-propyl-2H-chromene-3-carboxylic acid (4-pyrrolidin-2-yl-phenyl)-amide], the EC50 at S1P1 (EDG-1) was found to be 0.1 nM. On the same count and under the same terms, to `CCOc1c(OC)ccc2cc(C(=O)Nc3ccc([C@H]4CCCN4)cc3)c(=O)oc12` [Example 8] belongs 7.5 nM. `CCCc1c(OC)ccc2cc(C(=O)Nc3ccc([C@H]4COCCN4)cc3)c(=O)oc12` [Example 27]: the EC50 at S1P1 (EDG-1) came out at 0.2 nM. The same measure, in the same setting: to `CCc1c(OC)ccc2cc(C(=O)Nc3ccc([C@H]4CCCN4)cc3C)c(=O)oc12` [Example 62] belongs 0.5 nM; to `COc1ccc2cc(C(=O)Nc3ccc([C@H]4CCCN4)c(F)c3)c(=O)oc2c1C` [Example 72], 1.8 nM; to `Cc1cc([C@H]2CCCN2)ccc1NC(=O)c1cc2ccc(OC(C)C)c(OC(C)C)c2oc1=O` [Example 82], 2.4 nM. For the compound `CCOc1ccc2cc(C(=O)Nc3ccc([C@H]4CCCN4)cc3F)c(=O)oc2c1OCC` [Example 89], the EC50 at S1P1 (EDG-1) is 12.8 nM. The same measure, in the same setting: to `COc1ccc2cc(C(=O)Nc3ccc([C@H]4COCCN4)c(C)c3)c(=O)oc2c1OC(C)C` [Example 90] belongs 6.2 nM.

Turning to `COc1ccc2cc(C(=O)Nc3cccc([C@H]4COCCN4)c3)c(=O)oc2c1OC(C)C` [Example 96], the EC50 on S1P1 (EDG-1) is 2.8 nM.

(Values after patent US20100144729A1, “COUMARIN DERIVATIVES” (priority 2007, published 2010).)
